Legend:
Set-up in all cases: scale not given: the % may be the effect or the level left
[1] = target: T1, cGMP-dependent protein kinase 2 (Homo sapiens) (UniProt Q13237); assay: Inhibition of human PKG2 assessed as enzyme activity at 1 uM using LRRASLG as substrate preincubated for 20 mins followed by [gamma-33P]-ATP addition and measured after 120 mins by radiometric Hot-SpotSM Kinase assay relative to control
T1 sequence (whole entry): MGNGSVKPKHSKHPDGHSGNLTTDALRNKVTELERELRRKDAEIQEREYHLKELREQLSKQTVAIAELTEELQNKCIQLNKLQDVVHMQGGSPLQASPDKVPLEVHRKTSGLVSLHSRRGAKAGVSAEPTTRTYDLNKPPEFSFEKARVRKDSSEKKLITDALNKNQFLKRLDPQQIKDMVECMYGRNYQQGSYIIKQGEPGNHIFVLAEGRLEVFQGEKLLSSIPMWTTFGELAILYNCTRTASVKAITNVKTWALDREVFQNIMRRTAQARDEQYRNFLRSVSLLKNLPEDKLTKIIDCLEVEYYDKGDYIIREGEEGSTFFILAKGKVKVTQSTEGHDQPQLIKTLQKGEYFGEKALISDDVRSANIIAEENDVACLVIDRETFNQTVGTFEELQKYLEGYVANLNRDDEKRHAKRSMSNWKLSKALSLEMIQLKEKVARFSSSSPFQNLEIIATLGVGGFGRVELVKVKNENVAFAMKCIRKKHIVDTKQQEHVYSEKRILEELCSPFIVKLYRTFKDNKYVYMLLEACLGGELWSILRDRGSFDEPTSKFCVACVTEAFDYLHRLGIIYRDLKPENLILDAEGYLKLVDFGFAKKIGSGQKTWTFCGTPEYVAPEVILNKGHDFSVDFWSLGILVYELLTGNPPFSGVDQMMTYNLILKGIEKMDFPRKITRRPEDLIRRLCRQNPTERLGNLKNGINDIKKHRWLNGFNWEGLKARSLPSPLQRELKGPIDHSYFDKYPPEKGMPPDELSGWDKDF

[2] = target: Phosphorylase b kinase gamma catalytic chain, skeletal muscle/heart isoform (Homo sapiens) (UniProt Q16816); assay: Inhibition of human PHKg1 assessed as enzyme activity at 1 uM using KKLNRTLSFAEPG as substrate preincubated for 20 mins followed by [gamma-33P]-ATP addition and measured after 120 mins by radiometric Hot-SpotSM Kinase assay relative to control
Chain of Phosphorylase b kinase gamma catalytic chain, skeletal muscle/heart isoform (Homo sapiens) (Q16816 whole entry, looked up, canonical isoform): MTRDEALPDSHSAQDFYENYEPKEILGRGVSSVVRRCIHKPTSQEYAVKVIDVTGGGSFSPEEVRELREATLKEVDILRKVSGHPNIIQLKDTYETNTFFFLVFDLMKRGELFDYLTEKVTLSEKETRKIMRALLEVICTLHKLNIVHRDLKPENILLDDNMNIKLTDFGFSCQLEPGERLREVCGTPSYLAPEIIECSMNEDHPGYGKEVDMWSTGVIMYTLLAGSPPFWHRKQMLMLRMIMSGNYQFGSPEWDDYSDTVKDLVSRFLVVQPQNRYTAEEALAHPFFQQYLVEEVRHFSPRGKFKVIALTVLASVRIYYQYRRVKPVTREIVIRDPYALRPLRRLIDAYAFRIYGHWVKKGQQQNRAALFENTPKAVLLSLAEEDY

[3] = target: T2, Mitogen-activated protein kinase kinase kinase 19 (Homo sapiens) (UniProt Q56UN5); assay: Inhibition of human YSK4/MAP3K19 assessed as enzyme activity at 1 uM using myelin basic protein as substrate preincubated for 20 mins followed by [gamma-33P]-ATP addition and measured after 120 mins by radiometric Hot-SpotSM Kinase assay relative to control
T2 sequence (whole entry): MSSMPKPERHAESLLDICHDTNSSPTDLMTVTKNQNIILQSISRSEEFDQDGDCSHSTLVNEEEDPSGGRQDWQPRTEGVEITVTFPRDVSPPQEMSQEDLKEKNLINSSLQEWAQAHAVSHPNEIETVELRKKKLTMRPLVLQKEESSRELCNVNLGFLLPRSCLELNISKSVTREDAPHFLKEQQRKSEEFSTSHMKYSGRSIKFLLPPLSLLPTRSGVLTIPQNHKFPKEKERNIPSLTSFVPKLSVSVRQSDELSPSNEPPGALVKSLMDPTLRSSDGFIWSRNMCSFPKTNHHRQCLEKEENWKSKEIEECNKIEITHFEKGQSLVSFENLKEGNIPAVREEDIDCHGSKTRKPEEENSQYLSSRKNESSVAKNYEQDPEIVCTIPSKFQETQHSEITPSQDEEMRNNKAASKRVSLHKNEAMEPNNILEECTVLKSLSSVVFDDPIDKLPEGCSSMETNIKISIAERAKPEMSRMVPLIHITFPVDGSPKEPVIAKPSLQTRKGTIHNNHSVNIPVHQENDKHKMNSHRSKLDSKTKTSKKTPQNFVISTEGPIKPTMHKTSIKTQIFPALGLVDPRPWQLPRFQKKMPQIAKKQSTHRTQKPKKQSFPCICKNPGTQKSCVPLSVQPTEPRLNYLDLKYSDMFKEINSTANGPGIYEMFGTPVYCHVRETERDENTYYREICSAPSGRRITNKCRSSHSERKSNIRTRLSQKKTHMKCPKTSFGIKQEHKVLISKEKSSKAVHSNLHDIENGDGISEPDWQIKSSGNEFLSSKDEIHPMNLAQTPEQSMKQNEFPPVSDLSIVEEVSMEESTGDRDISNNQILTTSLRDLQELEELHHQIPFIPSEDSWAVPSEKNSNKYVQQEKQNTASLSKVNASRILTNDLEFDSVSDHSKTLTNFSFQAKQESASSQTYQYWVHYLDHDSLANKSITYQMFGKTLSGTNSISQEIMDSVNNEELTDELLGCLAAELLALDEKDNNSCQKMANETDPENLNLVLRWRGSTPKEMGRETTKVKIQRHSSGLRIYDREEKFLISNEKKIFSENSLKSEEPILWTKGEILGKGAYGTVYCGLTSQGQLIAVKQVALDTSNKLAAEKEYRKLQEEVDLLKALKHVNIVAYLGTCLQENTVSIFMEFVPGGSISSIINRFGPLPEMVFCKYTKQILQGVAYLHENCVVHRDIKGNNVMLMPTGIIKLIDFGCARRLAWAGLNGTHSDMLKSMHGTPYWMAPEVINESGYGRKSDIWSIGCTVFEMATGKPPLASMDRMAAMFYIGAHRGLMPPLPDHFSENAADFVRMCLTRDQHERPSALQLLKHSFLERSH

[4] = organism: Homo sapiens; assay: Inhibition of human PKA assessed as enzyme activity at 1 uM using LCGRTGRRNSI as substrate preincubated for 20 mins followed by [gamma-33P]-ATP addition and measured after 120 mins by radiometric Hot-SpotSM Kinase assay relative to control
[5] = target: Serine/threonine-protein kinase SBK1 (Homo sapiens) (UniProt Q52WX2); assay: Inhibition of human SBK1 assessed as enzyme activity at 1 uM using LCGRTGRRNSI as substrate preincubated for 20 mins followed by [gamma-33P]-ATP addition and measured after 120 mins by radiometric Hot-SpotSM Kinase assay relative to control
Chain of Serine/threonine-protein kinase SBK1 (Homo sapiens) (Q52WX2 whole entry): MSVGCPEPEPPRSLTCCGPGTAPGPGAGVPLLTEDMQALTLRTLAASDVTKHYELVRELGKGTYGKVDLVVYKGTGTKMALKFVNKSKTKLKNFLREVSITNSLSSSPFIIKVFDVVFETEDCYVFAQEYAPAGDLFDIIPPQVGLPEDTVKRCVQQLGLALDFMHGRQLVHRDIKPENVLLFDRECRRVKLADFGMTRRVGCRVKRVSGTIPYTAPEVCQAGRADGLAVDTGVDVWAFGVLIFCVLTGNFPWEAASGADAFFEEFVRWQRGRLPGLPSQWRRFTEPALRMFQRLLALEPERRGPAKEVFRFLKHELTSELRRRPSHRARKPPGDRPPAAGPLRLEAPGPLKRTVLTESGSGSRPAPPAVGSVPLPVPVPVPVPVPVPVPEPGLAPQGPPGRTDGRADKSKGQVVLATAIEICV

[6] = target: Ribosomal protein S6 kinase alpha-5 (Homo sapiens) (UniProt O75582); assay: Inhibition of human MSK1 assessed as enzyme activity at 1 uM using GRPRTSSFAEG as substrate preincubated for 20 mins followed by [gamma-33P]-ATP addition and measured after 120 mins by radiometric Hot-SpotSM Kinase assay relative to control
Chain of Ribosomal protein S6 kinase alpha-5 (Homo sapiens) (O75582 whole entry, looked up): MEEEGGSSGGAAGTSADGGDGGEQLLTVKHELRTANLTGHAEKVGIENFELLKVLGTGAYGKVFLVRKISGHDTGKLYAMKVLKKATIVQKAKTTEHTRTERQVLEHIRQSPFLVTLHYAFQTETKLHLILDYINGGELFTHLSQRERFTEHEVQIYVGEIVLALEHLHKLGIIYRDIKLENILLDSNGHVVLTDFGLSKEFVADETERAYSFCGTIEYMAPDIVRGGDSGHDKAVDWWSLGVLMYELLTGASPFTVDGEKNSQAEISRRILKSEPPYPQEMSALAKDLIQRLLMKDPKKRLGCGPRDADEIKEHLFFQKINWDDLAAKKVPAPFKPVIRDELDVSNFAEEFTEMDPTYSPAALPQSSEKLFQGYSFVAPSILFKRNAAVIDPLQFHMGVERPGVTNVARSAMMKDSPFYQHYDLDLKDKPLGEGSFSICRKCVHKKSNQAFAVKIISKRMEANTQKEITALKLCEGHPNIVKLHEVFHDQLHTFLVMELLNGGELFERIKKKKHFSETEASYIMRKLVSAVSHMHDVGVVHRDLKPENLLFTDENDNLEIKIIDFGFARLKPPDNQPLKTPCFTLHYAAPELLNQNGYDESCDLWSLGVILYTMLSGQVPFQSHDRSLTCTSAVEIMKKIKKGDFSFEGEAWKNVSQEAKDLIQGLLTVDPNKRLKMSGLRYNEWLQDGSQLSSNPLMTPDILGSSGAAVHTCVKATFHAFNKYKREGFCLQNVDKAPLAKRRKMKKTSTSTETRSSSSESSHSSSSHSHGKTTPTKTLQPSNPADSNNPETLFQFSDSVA

[7] = target: Serine/threonine-protein kinase 10 (Homo sapiens) (UniProt O94804); assay: Inhibition of human LOK/STK10 assessed as enzyme activity at 1 uM using RLGRDKYKTLRQIRQ as substrate preincubated for 20 mins followed by [gamma-33P]-ATP addition and measured after 120 mins by radiometric Hot-SpotSM Kinase assay relative to control
Chain of Serine/threonine-protein kinase 10 (Homo sapiens) (O94804 whole entry, looked up): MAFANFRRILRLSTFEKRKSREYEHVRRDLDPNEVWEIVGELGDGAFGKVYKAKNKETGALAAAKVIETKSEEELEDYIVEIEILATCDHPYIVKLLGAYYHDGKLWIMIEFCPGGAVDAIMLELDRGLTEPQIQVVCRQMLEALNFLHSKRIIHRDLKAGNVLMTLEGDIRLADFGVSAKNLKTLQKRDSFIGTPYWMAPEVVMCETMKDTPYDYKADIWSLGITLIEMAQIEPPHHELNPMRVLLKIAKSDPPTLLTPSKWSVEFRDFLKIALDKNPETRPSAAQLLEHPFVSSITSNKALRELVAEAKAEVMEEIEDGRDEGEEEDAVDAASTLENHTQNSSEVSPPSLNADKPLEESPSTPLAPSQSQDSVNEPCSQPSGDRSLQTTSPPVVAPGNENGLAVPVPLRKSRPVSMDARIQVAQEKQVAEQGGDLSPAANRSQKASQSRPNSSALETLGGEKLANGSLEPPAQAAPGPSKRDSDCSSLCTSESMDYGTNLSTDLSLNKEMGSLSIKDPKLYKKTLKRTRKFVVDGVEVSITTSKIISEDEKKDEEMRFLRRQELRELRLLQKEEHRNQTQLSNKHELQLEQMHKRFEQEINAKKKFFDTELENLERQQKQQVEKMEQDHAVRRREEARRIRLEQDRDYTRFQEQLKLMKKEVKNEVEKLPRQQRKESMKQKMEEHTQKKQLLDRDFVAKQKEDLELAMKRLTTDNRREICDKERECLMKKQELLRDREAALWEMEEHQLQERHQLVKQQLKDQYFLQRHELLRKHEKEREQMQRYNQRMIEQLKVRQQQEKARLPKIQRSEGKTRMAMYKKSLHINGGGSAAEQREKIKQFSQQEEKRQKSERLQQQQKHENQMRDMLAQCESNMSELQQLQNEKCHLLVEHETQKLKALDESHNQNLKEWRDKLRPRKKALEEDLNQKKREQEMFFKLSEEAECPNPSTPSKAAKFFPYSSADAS

[8] = target: Calcium/calmodulin-dependent protein kinase type 1 (Homo sapiens) (UniProt Q14012); assay: Inhibition of human CAMK1a assessed as enzyme activity at 1 uM using KKALRRQETVDAL as substrate preincubated for 20 mins followed by [gamma-33P]-ATP addition and measured after 120 mins by radiometric Hot-SpotSM Kinase assay relative to control
Chain of Calcium/calmodulin-dependent protein kinase type 1 (Homo sapiens) (Q14012 whole entry, looked up): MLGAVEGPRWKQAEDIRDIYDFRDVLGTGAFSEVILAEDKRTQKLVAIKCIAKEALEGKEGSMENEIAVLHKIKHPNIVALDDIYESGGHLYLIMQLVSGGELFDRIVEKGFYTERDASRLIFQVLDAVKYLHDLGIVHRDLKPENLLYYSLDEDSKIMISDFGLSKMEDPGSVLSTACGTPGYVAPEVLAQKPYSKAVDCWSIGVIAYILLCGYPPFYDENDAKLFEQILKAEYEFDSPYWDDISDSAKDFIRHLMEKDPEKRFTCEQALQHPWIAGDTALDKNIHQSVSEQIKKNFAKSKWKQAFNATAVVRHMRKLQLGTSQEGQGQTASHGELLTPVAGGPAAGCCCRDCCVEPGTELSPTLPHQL

**Q.** Which results are given for `CC[C@H](Nc1ncnc2[nH]cnc12)c1nc2cccc(F)c2c(=O)n1-c1ccccc1`?
**A.** Activity [1]: 99.7%; Activity [2]: 99%; Activity [3]: 90.5%; Activity [4]: 102%; Activity [5]: 101%; Activity [6]: 94.6%; Activity [7]: 94.4%; Activity [8]: 96.8%

**Q.** For `C[C@H](Nc1ncnc2nc[nH]c12)c1cc2cccc(Cl)c2c(=O)n1-c1ccccc1`, which Activity [1] is on record?
**A.** The Activity was 99.8%.

**Q.** What about the Activity [2] of the same compound?
**A.** Its Activity is 98.4%.

**Q.** And the Activity [3]?
**A.** Its Activity is 91.6%.

**Q.** And the Activity [4]?
**A.** The Activity was 95.5%.

**Q.** And the Activity [5]?
**A.** The Activity was 99.5%.

**Q.** What about the Activity [6] of the same compound?
**A.** Its Activity is 96.3%.

**Q.** What about the Activity [7] of the same compound?
**A.** Its Activity is 94.4%.

**Q.** What about the Activity [8] of the same compound?
**A.** The Activity was 103%.

**Q.** What does the source list for `CC(C)Oc1ccc(-c2nn([C@@H](C)c3oc4ccc(F)cc4c(=O)c3-c3cccc(F)c3)c3ncnc(N)c23)cc1F` [UMBRALISIB]?
**A.** Activity [1]: 102%; Activity [2]: 95.4%; Activity [3]: 92.4%; Activity [4]: 91.4%; Activity [5]: 98.8%; Activity [6]: 96.8%; Activity [7]: 99%; Activity [8]: 99.6%
